Measurements reported in EPA's ToxRefDB 2.

What was measured:
[1] = test system: rabbit; conditions: Prenatal developmental toxicity study; new zealand white; Oral; Gavage/Intubation; dose end: 19 GD; group: maternal; systemic / in life observation / body weight / body weight + systemic / in life observation / body weight / body weight gain + systemic / in…
[2] = test system: rat; conditions: Chronic toxicity; sprague dawley; Oral; Gavage/Intubation; dose end: 6 month; group: systemic; systemic / clinical chemistry / sodium / sodium + systemic / clinical chemistry / bilirubin / total bilirubin + systemic / clinical …
[3] = test system: rat; conditions: Fertility (Segment I), sprague dawley, Oral, Gavage/Intubation, dose end: 7 GD
[4] = test system: dog; conditions: Sub-acute repeat dose toxicity; beagle; Oral; Capsule; dose end: 1 month; group: systemic; systemic / clinical chemistry / triglycerides / triglycerides
[5] = test system: rat; conditions: Fertility (Segment I), sprague dawley, Oral, Gavage/Intubation, dose end: 7 GD; remark: listed apart in the source
[6] = test system: rat; conditions: Sub-acute repeat dose toxicity, sprague dawley, Oral, Gavage/Intubation, dose end: 31 day, group: systemic
[7] = test system: rabbit; conditions: Prenatal developmental toxicity study; new zealand white; Oral; Gavage/Intubation; dose end: 19 GD; group: maternal; systemic / in life observation / body weight / body weight gain
[8] = test system: rat; conditions: Prenatal developmental toxicity study, sprague dawley, Oral, Gavage/Intubation, dose end: 17 GD
[9] = test system: rat; conditions: Fertility (Segment I), sprague dawley, Oral, Gavage/Intubation, dose end: 2 week, group: parental
[10] = test system: rat; conditions: Prenatal developmental toxicity study, sprague dawley, Oral, Gavage/Intubation, dose end: 17 GD, group: maternal
[11] = test system: rabbit; conditions: Prenatal developmental toxicity study, Dermal, Topical, dose end: 16 GD, group: maternal
[12] = test system: mouse; conditions: Prenatal developmental toxicity study, CD-1, Dermal, Topical, dose end: 13 GD, group: maternal
[13] = test system: rat; conditions: Subchronic oral toxicity in rodents, fischer, Feed, dose end: 13 week, group: systemic
[14] = test system: mouse; conditions: Subchronic oral toxicity in rodents, b6c3f1, Feed, dose end: 13 week, group: systemic
[15] = test system: mouse; conditions: Carcinogenicity, b6c3f1, Oral, Feed, dose end: 103 week, group: systemic
[16] = test system: rat; conditions: Carcinogenicity, fischer, Oral, Feed, dose end: 103 week, group: systemic
[17] = group: maternal, reproductive / reproductive performance / estrous cycle / abnormal + reproductive / reproductive performance / estrous cycle / corpora lutea…
[18] = group: parental, systemic / in life observation / clinical signs / fur (altered appearance) + systemic / in life observation / clinical signs / salivation
[19] = group: parental, systemic / in life observation / clinical signs / fur (altered appearance) + systemic / in life observation / clinical signs / salivation + …
[20] = group: parental, systemic / in life observation / clinical signs / piloerection
[21] = group: parental, systemic / in life observation / clinical signs / piloerection + systemic / in life observation / body weight / body weight + systemic / in …
[22] = systemic / clinical chemistry / albumin / albumin + systemic / clinical chemistry / phosphorus / phosphorus + systemic / clinical chemistry…
[23] = systemic / hematology / reticulocyte / reticulocyte + systemic / pathology microscopic / lung / histiocytosis + systemic / hematology / …
[24] = group: developmental, systemic / in life observation / body weight / fetal weight
[25] = group: maternal, systemic / in life observation / clinical signs / piloerection
[26] = systemic / in life observation / body weight / body weight + systemic / in life observation / body weight / body weight gain + systemic / in…
[27] = reproductive / reproductive performance / postimplantation loss / postimplantation loss + systemic / in life observation / body weight / …
[28] = systemic / in life observation / body weight / body weight gain
[29] = systemic / in life observation / body weight / body weight gain + systemic / in life observation / clinical signs / erythema + systemic / in…
[30] = systemic / in life observation / body weight / body weight + systemic / pathology microscopic / bone / osteopetrosis + systemic / pathology …
[31] = systemic / pathology microscopic / bone / osteopetrosis + systemic / in life observation / body weight / body weight
[32] = systemic / in life observation / mortality / mortality + systemic / pathology microscopic / adrenal gland / vacuolization cytoplasmic + …
[33] = systemic / pathology microscopic / uterus / hyperplasia
[34] = systemic / pathology microscopic / bone marrow / myelofibrosis + systemic / pathology microscopic / mammary gland / cyst + systemic / …
[35] = systemic / pathology microscopic / liver / adenoma + systemic / pathology microscopic / pituitary gland / adenoma + systemic / pathology …
[36] = systemic / in life observation / body weight / body weight gain + systemic / pathology microscopic / eye / cataract + systemic / pathology …

COc1ccc2cc(S(=O)(=O)N[C@H](CC(=O)N[C@H](Cc3ccc(CN4[C@H](C)CCC[C@@H]4C)cc3)C(=O)N(C)C(C)C)c3ccc4c(c3)OCO4)ccc2c1.Cl
LEL [1]: 100 mg/kg/day | LOAEL [1]: 100 mg/kg/day | NEL [1]: 50 mg/kg/day | NOAEL [1]: 50 mg/kg/day | LEL [2]: 10 mg/kg/day | LOAEL [2]: > 100 mg/kg/day | NEL [2]: < 10 mg/kg/day | NOAEL [2]: ≥ 100 mg/kg/day | LEL [3, 17]: 180 mg/kg/day | LOAEL [3, 17]: > 180 mg/kg/day | NEL [3, 17]: 60 mg/kg/day | NOAEL [3, 17]: ≥ 180 mg/kg/day | LEL [3, 18]: 20 mg/kg/day | NEL [3, 18]: < 20 mg/kg/day | LOAEL [3, 19]: > 180 mg/kg/day | NOAEL [3, 19]: ≥ 180 mg/kg/day | LEL [4]: 10 mg/kg/day | LOAEL [4]: 10 mg/kg/day | NEL [4]: < 10 mg/kg/day | NOAEL [4]: < 10 mg/kg/day | LEL [5, 17]: 180 mg/kg/day | LOAEL [5, 17]: 180 mg/kg/day | NEL [5, 17]: 60 mg/kg/day | NOAEL [5, 17]: 60 mg/kg/day | LEL [5, 20]: 20 mg/kg/day | NEL [5, 20]: < 20 mg/kg/day | LOAEL [5, 21]: 180 mg/kg/day | NOAEL [5, 21]: 60 mg/kg/day | LOAEL [6, 22]: 60 mg/kg/day | NOAEL [6, 22]: 20 mg/kg/day | LEL [6, 23]: 20 mg/kg/day | NEL [6, 23]: < 20 mg/kg/day | LEL [7]: 120 mg/kg/day | LOAEL [7]: > 120 mg/kg/day | NEL [7]: 60 mg/kg/day | NOAEL [7]: ≥ 120 mg/kg/day | LEL [8, 24]: 120 mg/kg/day | LOAEL [8, 24]: 120 mg/kg/day | NEL [8, 24]: 60 mg/kg/day | NOAEL [8, 24]: 60 mg/kg/day | LEL [8, 25]: 30 mg/kg/day | NEL [8, 25]: < 30 mg/kg/day | LOAEL ([8]; group: maternal, systemic / in life observation / clinical signs / piloerection + systemic / in life observation / food consumption / food consumption): 60 mg/kg/day | NOAEL ([8]; group: maternal, systemic / in life observation / clinical signs / piloerection + systemic / in life observation / food consumption / food consumption + …): 30 mg/kg/day | LOAEL [9, 26]: 150 mg/kg/day | NEL [9, 26]: 20 mg/kg/day | NOAEL [9, 26]: 60 mg/kg/day | LEL ([9]; systemic / in life observation / clinical signs / salivation): 60 mg/kg/day | LEL ([10]; reproductive / reproductive performance / postimplantation loss / postimplantation loss): 60 mg/kg/day | LOAEL [10, 27]: > 180 mg/kg/day | NEL [10, 27]: 20 mg/kg/day | NOAEL [10, 27]: ≥ 180 mg/kg/day

CCCCCCCCCCC(C)c1ccc(S(=O)(=O)O)cc1 (stereo unspecified) [Alkylbenzenesulfonate, linear]
LEL [11, 28]: 9 mg/kg/day | LOAEL [11, 29]: > 90 mg/kg/day | NEL [11, 29]: 0.9 mg/kg/day | NOAEL [11, 29]: ≥ 90 mg/kg/day | LEL ([12]; reproductive / offspring survival early / dead fetuses / dead fetuses + systemic / in life observation / clinical signs / irritability): 50 mg/kg/day | LOAEL ([12]; systemic / in life observation / body weight / body weight gain + systemic / in life observation / clinical signs / erythema + reproductive…): 500 mg/kg/day | NEL [12, 29]: 5 mg/kg/day | NOAEL [12, 29]: 50 mg/kg/day

C[C@H]1CCCC(=O)CCC/C=C/c2cc(O)cc(O)c2C(=O)O1 [Zearalenone]
LOAEL [13, 30]: > 150 mg/kg/day | NOAEL [13, 30]: ≥ 150 mg/kg/day | LEL [13, 31]: 1.5 mg/kg/day | NEL [13, 31]: < 1.5 mg/kg/day | LOAEL [14, 32]: > 450 mg/kg/day | NOAEL [14, 32]: ≥ 450 mg/kg/day | LEL [14, 33]: 4.5 mg/kg/day | NEL [14, 33]: < 4.5 mg/kg/day | LEL [15, 34]: 7.5 mg/kg/day | NEL [15, 34]: < 7.5 mg/kg/day | LOAEL [15, 35]: > 15 mg/kg/day | NOAEL [15, 35]: ≥ 15 mg/kg/day | LOAEL [16, 28]: 2.5 mg/kg/day | LEL [16, 36]: 1.25 mg/kg/day | NEL [16, 36]: < 1.25 mg/kg/day | NOAEL [16, 36]: 1.25 mg/kg/day
